Data from paper PMC3775635, “Do N-arachidonyl-glycine (NA-glycine) and 2-arachidonoyl glycerol (2-AG) share mode of action and the binding site on the β2 subunit of GABAA receptors?” (PeerJ, 2013).

Target: T1, GABAA receptor β2 subunit (α1β2γ2 GABAA receptor) (Rattus norvegicus, UniProt P63138)
T1 construct: gene Gabrb2; recombinant α1β2γ2 receptor expressed in Xenopus oocytes; also concatenated α1-β2-α1/γ2-β2; with GABAA receptor α1 and γ2 subunits
Assay: two-electrode voltage clamp in Xenopus oocytes, potentiation of GABA currents; beta1/beta2 concatemers and point mutants
Format: cell-based

T1 sequence (P63138 26-474): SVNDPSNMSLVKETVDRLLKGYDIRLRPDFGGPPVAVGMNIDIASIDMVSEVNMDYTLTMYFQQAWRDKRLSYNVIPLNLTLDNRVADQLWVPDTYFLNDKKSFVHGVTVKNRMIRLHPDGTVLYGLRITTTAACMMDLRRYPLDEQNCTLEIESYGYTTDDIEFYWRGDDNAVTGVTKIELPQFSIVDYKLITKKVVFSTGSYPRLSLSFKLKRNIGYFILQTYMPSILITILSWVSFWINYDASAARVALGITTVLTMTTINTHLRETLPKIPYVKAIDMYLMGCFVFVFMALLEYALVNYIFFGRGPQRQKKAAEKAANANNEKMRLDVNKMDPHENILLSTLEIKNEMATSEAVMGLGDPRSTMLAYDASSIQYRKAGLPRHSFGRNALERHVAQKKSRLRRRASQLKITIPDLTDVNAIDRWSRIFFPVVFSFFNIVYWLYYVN
T1 sequence (P62813 28-455 partner): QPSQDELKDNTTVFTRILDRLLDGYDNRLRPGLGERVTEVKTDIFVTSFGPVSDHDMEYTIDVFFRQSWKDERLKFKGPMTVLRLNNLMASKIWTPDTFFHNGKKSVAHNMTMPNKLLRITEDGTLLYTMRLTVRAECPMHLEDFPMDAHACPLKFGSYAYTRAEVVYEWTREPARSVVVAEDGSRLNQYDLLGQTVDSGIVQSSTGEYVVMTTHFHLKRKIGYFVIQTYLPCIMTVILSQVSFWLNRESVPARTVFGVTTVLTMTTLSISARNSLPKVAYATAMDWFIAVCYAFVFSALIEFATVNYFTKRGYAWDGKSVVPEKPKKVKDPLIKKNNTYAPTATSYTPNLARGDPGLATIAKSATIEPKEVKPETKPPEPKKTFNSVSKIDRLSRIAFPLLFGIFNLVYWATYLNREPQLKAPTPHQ
T1 sequence (P18508 39-466 partner): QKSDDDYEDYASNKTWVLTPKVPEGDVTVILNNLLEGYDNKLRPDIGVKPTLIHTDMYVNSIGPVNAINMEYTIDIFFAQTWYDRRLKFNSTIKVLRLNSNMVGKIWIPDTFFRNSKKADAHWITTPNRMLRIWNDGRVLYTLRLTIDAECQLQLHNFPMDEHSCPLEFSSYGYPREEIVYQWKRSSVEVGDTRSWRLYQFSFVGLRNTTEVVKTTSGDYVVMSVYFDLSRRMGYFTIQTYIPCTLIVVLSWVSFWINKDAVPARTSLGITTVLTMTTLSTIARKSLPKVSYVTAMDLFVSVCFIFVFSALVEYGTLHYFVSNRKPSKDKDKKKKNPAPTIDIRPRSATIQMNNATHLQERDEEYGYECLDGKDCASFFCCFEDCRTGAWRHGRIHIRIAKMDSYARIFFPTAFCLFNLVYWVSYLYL

SMILES: CCCCC/C=C\C/C=C\C/C=C\C/C=C\CCCC(=O)NCC(=O)O [NA-glycine]
- EC50: 1 to 10 µM
